Laboratory results from patent US8653092B2, “Tetrahydro-pyrido-pyrimidine derivatives” (Novartis AG, priority 2010, dated 2014).

Key:
[1] = target: PI3K delta (Homo sapiens (Human), UniProt O00329); experiment: Enzymatic PI3K delta isoform inhibition (lipid kinase, Kinase-Glo luminescence); format: biochemical; settings: enzymatic assay
[2] = target: PI3K alpha (Homo sapiens (Human), UniProt P42336); experiment: Enzymatic PI3K alpha isoform inhibition (lipid kinase, Kinase-Glo luminescence); format: biochemical; settings: enzymatic assay
Chain of PI3K alpha (P42336 other isoform, or with tags, fused parts or gaps): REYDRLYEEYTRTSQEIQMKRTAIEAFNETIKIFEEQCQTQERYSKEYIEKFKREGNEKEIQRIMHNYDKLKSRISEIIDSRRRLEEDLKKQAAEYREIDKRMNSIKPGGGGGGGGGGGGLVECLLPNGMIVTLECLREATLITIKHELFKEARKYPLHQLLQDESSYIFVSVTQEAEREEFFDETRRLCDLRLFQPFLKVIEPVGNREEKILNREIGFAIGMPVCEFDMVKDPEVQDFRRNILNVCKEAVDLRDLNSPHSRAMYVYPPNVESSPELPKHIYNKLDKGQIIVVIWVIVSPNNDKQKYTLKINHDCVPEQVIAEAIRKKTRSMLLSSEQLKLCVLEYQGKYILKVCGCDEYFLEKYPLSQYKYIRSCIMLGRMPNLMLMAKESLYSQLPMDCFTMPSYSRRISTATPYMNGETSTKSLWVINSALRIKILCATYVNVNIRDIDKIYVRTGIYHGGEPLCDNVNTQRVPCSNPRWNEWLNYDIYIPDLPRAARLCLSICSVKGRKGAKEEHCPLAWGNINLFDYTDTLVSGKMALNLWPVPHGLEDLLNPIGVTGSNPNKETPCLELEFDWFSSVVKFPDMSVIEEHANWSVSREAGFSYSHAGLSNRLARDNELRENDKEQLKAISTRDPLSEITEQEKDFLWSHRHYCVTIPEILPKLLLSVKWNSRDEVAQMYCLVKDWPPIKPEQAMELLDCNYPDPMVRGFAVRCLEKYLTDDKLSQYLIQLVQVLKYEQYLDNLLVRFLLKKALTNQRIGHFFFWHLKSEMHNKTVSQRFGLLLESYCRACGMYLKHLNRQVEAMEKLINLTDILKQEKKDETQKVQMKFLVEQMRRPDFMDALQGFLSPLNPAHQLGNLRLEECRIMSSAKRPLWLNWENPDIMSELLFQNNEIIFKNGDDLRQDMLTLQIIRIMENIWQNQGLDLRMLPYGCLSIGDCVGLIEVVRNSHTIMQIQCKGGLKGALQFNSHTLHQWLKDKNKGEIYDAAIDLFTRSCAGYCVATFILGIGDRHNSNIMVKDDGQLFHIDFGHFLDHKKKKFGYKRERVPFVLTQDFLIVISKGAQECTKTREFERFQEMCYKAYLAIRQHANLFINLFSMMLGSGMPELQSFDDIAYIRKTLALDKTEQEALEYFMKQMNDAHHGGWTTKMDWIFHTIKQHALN

Chain of PI3K delta (O00329 other isoform, or with tags, fused parts or gaps linker GGGGGG): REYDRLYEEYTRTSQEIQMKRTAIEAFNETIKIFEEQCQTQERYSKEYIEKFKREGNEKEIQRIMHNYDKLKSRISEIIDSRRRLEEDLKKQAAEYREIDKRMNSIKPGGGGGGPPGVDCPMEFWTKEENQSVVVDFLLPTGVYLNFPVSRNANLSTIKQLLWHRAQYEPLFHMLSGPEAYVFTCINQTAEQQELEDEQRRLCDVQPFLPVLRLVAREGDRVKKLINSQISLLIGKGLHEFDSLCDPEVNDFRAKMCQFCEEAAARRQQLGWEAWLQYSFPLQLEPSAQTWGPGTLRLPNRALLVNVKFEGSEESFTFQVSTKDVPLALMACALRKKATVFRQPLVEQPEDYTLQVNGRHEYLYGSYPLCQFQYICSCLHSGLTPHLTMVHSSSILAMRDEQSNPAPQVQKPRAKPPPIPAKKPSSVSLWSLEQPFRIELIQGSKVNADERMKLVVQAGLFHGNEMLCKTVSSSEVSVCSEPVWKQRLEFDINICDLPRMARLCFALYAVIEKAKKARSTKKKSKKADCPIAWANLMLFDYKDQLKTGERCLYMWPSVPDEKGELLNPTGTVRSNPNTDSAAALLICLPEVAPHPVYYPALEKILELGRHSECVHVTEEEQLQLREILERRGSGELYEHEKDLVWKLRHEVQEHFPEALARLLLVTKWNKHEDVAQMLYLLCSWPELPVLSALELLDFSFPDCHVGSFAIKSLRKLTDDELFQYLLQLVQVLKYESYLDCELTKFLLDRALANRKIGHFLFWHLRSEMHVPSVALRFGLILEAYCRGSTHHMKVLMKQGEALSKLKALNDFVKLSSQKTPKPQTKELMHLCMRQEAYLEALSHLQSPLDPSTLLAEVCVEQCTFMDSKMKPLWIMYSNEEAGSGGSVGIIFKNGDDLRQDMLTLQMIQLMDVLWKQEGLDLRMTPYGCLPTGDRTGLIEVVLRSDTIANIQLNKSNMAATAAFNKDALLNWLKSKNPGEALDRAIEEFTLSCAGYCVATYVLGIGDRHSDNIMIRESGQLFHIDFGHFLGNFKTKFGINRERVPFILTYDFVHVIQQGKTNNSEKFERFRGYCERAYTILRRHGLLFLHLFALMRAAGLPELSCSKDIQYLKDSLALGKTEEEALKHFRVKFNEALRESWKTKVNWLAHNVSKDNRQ

IC50 [1] | IC50 [2] | Structure (SMILES)
29 nM | 518 nM | COc1ncc(N2CCc3ncnc(O[C@H]4CCN(C(=O)c5cn(C)nc5C)C4)c3C2)cc1C(F)(F)F [Example 48, (1,3-Dimethyl-1H-pyrazol-4-yl)-{(S)-3-[6-(6-methoxy-5-trifluoromethyl-pyridin-3-yl)-5,6,7,8-tetrahydro-pyrido[4,3-d]pyrimidin-4-yloxy]-pyrrolidin-1-yl}-methanone]
9 nM | 668 nM | COc1ncc(N2CCc3ncnc(O[C@H]4CCN(C(=O)c5oc(C)nc5C)C4)c3C2)cc1C [Example 10, (2,4-Dimethyl-oxazol-5-yl)-{(S)-3-[6-(6-methoxy-5-methyl-pyridin-3-yl)-5,6,7,8-tetrahydro-pyrido[4,3-d]pyrimidin-4-yloxy]-pyrrolidin-1-yl}-methanone]
9 nM | 58 nM | O=C(C1CCOCC1)N1CC[C@H](Nc2ncnc3c2CN(c2cncc(C(F)(F)F)c2)CC3)C1 [Example 84, (Tetrahydro-pyran-4-yl)-{(S)-3-{6-(5-(trifluoromethyl)pyridin-3-yl)-5,6,7,8-tetrahydropyrido[4,3-d]pyrimidin-4-ylamino)pyrrolidin-1-yl}-methanone]
14 nM | 515 nM | COc1ncc(N2CCc3ncnc(O[C@H]4CCN(C(=O)c5cncs5)C4)c3C2)cc1C(F)(F)F [Example 41, {(S)-3-[6-(6-Methoxy-5-trifluoromethyl-pyridin-3-yl)-5,6,7,8-tetrahydro-pyrido[4,3-d]pyrimidin-4-yloxy]-pyrrolidin-1-yl}-thiazol-5-yl-methanone]
5 nM | 384 nM | COc1ncc(N2CCc3ncnc(O[C@H]4CCN(C(=O)c5cnn(C)c5)C4)c3C2)cc1C(F)(F)F [Example 54, {(S)-3-[6-(6-Methoxy-5-trifluoromethyl-pyridin-3-yl)-5,6,7,8-tetrahydro-pyrido[4,3-d]pyrimidin-4-yloxy]-pyrrolidin-1-yl}-(1-methyl-1H-pyrazol-4-yl)-methanone]
14 nM | 1650 nM | COc1ncc(N2CCc3ncnc(O[C@H]4CCN(C(=O)c5ccno5)C4)c3C2)cc1C [Example 34, Isoxazol-5-yl-{(S)-3-[6-(6-Methoxy-5-methyl-pyridin-3-yl)-5,6,7,8-tetrahydro-pyrido[4,3-d]pyrimidin-4-yloxy]-pyrrolidin-1-yl}-methanone]
21 nM | 3020 nM | COc1ncc(N2CCc3ncnc(O[C@H]4CCN(C(=O)c5cnoc5C)C4)c3C2)cc1C [Example 31, {(S)-3-[6-(6-Methoxy-5-methyl-pyridin-3-yl)-5,6,7,8-tetrahydro-pyrido[4,3-d]pyrimidin-4-yloxy]-pyrrolidin-1-yl}-(5-methyl-isoxazol-4-yl)-methanone]
29 nM | 1190 nM | COc1ncc(N2CCc3ncnc(O[C@H]4CCN(C(=O)N5CCN(C(C)=O)CC5)C4)c3C2)cc1C(F)(F)F [Example 89, 1-(4-{(S)-3-[6-(6-methoxy-5-trifluoromethyl-pyridin-3-yl)-5,6,7,8-tetrahydro-pyrido[4,3-d]pyrimidin-4-yloxy]-pyrrolidine-1-carbonyl}-piperazin-1-yl)-ethanone]
24 nM | 872 nM | COc1ncc(N2CCc3ncnc(O[C@H]4CCN(C(=O)c5cncn5C)C4)c3C2)cc1C(F)(F)F [Example 93, {(S)-3-[6-(6-Methoxy-5-trifluoromethyl-pyridin-3-yl)-5,6,7,8-tetrahydro-pyrido[4,3-d]pyrimidin-4-yloxy]-pyrrolidin-1-yl}-(3-methyl-3H-imidazol-4-yl)-methanone]
44 nM | 987 nM | N#Cc1cc(N2CCc3ncnc(O[C@H]4CCN(C(=O)C5CCOCC5)C4)c3C2)cnc1N [Example 6, 2-Amino-5-{4-[(S)-1-(tetrahydro-pyran-4-carbonyl)-pyrrolidin-3-yloxy]-7,8-dihydro-5H-pyrido[4,3-d]pyrimidin-6-yl}-nicotinonitrile]
27 nM | 2490 nM | COCC(=O)N1CC[C@H](Oc2ncnc3c2CN(c2cnc(OC)c(C#N)c2)CC3)C1 [Example 8, 2-Methoxy-5-{4-[(S)-1-(2-methoxy-acetyl)-pyrrolidin-3-yloxy]-7,8-dihydro-5H-pyrido[4,3-d]pyrimidin-6-yl}-nicotinonitrile]
25 nM | 4100 nM | COc1ncc(N2CCc3ncnc(O[C@H]4CCN(C(=O)c5cnn(C)c5)C4)c3C2)cc1C#N [Example 36, 2-Methoxy-5-{4-[(S)-1-(1-methyl-1H-pyrazole-4-carbonyl)-pyrrolidin-3-yloxy]-7,8-dihydro-5H-pyrido[4,3-d]pyrimidin-6-yl}-nicotinonitrile]
13 nM | 1800 nM | COc1ncc(N2CCc3ncnc(O[C@H]4CCN(C(=O)c5cncn5C)C4)c3C2)cc1C [Example 13, {(S)-3-[6-(6-Methoxy-5-methyl-pyridin-3-yl)-5,6,7,8-tetrahydro-pyrido[4,3-d]pyrimidin-4-yloxy]-pyrrolidin-1-yl}-(3-methyl-3H-imidazol-4-yl)-methanone]
34 nM | 388 nM | COc1ncc(N2CCc3ncnc(O[C@H]4CCN(C(=O)c5cn[nH]c5)C4)c3C2)cc1C(F)(F)F [Example 49, {(S)-3-[6-(6-Methoxy-5-trifluoromethyl-pyridin-3-yl)-5,6,7,8-tetrahydro-pyrido[4,3-d]pyrimidin-4-yloxy]-pyrrolidin-1-yl}-(1H-pyrazol-4-yl)-methanone]
33 nM | 1760 nM | CCC(=O)N1CC[C@H](Oc2ncnc3c2CN(c2cnc(OC)c(OC)c2)CC3)C1 [Example 4, 1-{(S)-3-[6-(5,6-Dimethoxy-pyridin-3-yl)-5,6,7,8-tetrahydro-pyrido[4,3-d]pyrimidin-4-yloxy]-pyrrolidin-1-yl}-propan-1-one]
49 nM | 4230 nM | COc1ncc(N2CCc3ncnc(O[C@H]4CCN(C(=O)c5cscn5)C4)c3C2)cc1C#N [Example 35, 2-Methoxy-5-{4-[(S)-1-(thiazole-4-carbonyl)-pyrrolidin-3-yloxy]-7,8-dihydro-5H-pyrido[4,3-d]pyrimidin-6-yl}-nicotinonitrile]
40 nM | 3410 nM | COc1ncc(N2CCc3ncnc(O[C@H]4CCN(C(=O)CC5CCOCC5)C4)c3C2)cc1C#N [Example 27, 2-Methoxy-5-{4-[(S)-1-(2-tetrahydro-pyran-4-yl-acetyl)-pyrrolidin-3-yloxy]-7,8-dihydro-5H-pyrido[4,3-d]pyrimidin-6-yl}-nicotinonitrile]
12 nM | 952 nM | COc1ncc(N2CCc3ncnc(O[C@H]4CCN(C(=O)c5cnco5)C4)c3C2)cc1C [Example 12, {(S)-3-[6-(6-Methoxy-5-methyl-pyridin-3-yl)-5,6,7,8-tetrahydro-pyrido[4,3-d]pyrimidin-4-yloxy]-pyrrolidin-1-yl}-oxazol-5-yl-methanone]
16 nM | 728 nM | COc1ncc(N2CCc3ncnc(O[C@H]4CCN(C(=O)C5CNC(=O)C5)C4)c3C2)cc1C(F)(F)F (stereo partly drawn) [Example 43, 4-{(S)-3-[6-(6-Methoxy-5-trifluoromethyl-pyridin-3-yl)-5,6,7,8-tetrahydro-pyrido[4,3-d]pyrimidin-4-yloxy]-pyrrolidine-1-carbonyl}-pyrrolidin-2-one]
23 nM | 489 nM | COc1ncc(N2CCc3ncnc(O[C@H]4CCN(C(=O)CC(C)(C)C)C4)c3C2)cc1C(F)(F)F [Example 62, 1-{(S)-3-[6-(6-Methoxy-5-trifluoromethyl-pyridin-3-yl)-5,6,7,8-tetrahydro-pyrido[4,3-d]pyrimidin-4-yloxy]-pyrrolidin-1-yl}-3,3-dimethyl-butan-1-one]
16 nM | 430 nM | COc1ncc(N2CCc3ncnc(N[C@H]4CCN(C(=O)C5CCOC(C)(C)C5)C4)c3C2)cc1C (stereo partly drawn) [Example 80, (2,2-Dimethyl-tetrahydro-pyran-4-yl)-{(S)-3-[6-(6-methoxy-5-methyl-pyridin-3-yl)-5,6,7,8-tetrahydro-pyrido[4,3-d]pyrimidin-4-ylamino]-pyrrolidin-1-yl}-methanone]
8 nM | 580 nM | COc1cc(N2CCc3ncnc(O[C@H]4CCN(C(=O)c5cnco5)C4)c3C2)cnc1OC [Example 22, {(S)-3-[6-(5,6-Dimethoxy-pyridin-3-yl)-5,6,7,8-tetrahydro-pyrido[4,3-d]pyrimidin-4-yloxy]-pyrrolidin-1-yl}-oxazol-5-yl-methanone]
53 nM | 757 nM | COc1ccc(N2CCc3ncnc(O[C@H]4CCN(C(=O)C5CCOCC5)C4)c3C2)cn1 [Example 95, {(S)-3-[6-(6-Methoxy-pyridin-3-yl)-5,6,7,8-tetrahydro-pyrido[4,3-d]pyrimidin-4-yloxy)pyrrolidin-1-yl}-(tetrahydro-pyran-4-yl)-methanone]
4 nM | 93 nM | COc1ncc(N2CCc3ncnc(N[C@H]4CCN(C(=O)c5cnco5)C4)c3C2)cc1C(F)(F)F [Example 72, {(S)-3-[6-(6-Methoxy-5-trifluoromethyl-pyridin-3-yl)-5,6,7,8-tetrahydro-pyrido[4,3-d]pyrimidin-4-ylamino]-pyrrolidin-1-yl}-oxazol-5-yl-methanone]
10 nM | 129 nM | COc1cc(N2CCc3ncnc(O[C@H]4CCN(C(=O)c5coc(C)n5)C4)c3C2)cnc1OC [Example 23, {(S)-3-[6-(5,6-Dimethoxy-pyridin-3-yl)-5,6,7,8-tetrahydro-pyrido[4,3-d]pyrimidin-4-yloxy]-pyrrolidin-1-yl}-(2-methyl-oxazol-4-yl)-methanone]
8 nM | 320 nM | COc1cc(N2CCc3ncnc(O[C@H]4CCN(C(=O)c5cocn5)C4)c3C2)cnc1OC [Example 21, {(S)-3-[6-(5,6-Dimethoxy-pyridin-3-yl)-5,6,7,8-tetrahydro-pyrido[4,3-d]pyrimidin-4-yloxy]-pyrrolidin-1-yl}-oxazol-4-yl-methanone]
17 nM | 7680 nM | COc1ncc(N2CCc3ncnc(O[C@H]4CCN(C(=O)C5CCN(C(C)=O)CC5)C4)c3C2)cc1C [Example 17, 1-(4-{(S)-3-[6-(6-Methoxy-5-methyl-pyridin-3-yl)-5,6,7,8-tetrahydro-pyrido[4,3-d]pyrimidin-4-yloxy]-pyrrolidine-1-carbonyl}-piperidin-1-yl)-ethanone]
